Assay results published in ChEMBL document CHEMBL5390280, “Design, Synthesis, and Biological Evaluation of an Orally Bioavailable, Potent, and Selective ROCK2 Inhibitor for Psoriasis Treatment” (J Med Chem, 2023).
Converted amounts (≈) assume the structure as drawn. The source made the active and inactive calls. The rule behind the calls is not given here.

Tests used:
Mus musculus [1] = test: Anti-inflammatory activity in Balb/c mouse model of IMQ-induced skin inflammation assessed as reduction in epidermal thickness of dorsal skin at 40 to 80 mg/kg, po administered daily for 7 days by H and E staining based analysis; type: functional, organism-based; conditions: dose 40-80 mg/kg, time 7.0 day
HaCaT = test: Anti-psoriasis effect in KGF-stimulated human HaCaT cells assessed as decrease in N-cadherin level at 2 to 5 uM incubated for 24 hrs by Western blot analysis; type: functional, cell-based; conditions: dose 2-5 µM
[2] = Cmax in Balb/c mouse at 40 mg/kg, po measured for 0.08 to 24 hrs by LC-MS/MS analysis; type: ADME, organism-based; design: time lower 0.08 hrs, dose 40 mg/kg, time upper 24 hrs, route po; conditions: in vivo
[3] = target: Rho-associated protein kinase 2 (Homo sapiens, UniProt O75116); test: Inhibition of ROCK2 (unknown origin) by HTRF assay
Chain of Rho-associated protein kinase 2 (O75116 whole entry): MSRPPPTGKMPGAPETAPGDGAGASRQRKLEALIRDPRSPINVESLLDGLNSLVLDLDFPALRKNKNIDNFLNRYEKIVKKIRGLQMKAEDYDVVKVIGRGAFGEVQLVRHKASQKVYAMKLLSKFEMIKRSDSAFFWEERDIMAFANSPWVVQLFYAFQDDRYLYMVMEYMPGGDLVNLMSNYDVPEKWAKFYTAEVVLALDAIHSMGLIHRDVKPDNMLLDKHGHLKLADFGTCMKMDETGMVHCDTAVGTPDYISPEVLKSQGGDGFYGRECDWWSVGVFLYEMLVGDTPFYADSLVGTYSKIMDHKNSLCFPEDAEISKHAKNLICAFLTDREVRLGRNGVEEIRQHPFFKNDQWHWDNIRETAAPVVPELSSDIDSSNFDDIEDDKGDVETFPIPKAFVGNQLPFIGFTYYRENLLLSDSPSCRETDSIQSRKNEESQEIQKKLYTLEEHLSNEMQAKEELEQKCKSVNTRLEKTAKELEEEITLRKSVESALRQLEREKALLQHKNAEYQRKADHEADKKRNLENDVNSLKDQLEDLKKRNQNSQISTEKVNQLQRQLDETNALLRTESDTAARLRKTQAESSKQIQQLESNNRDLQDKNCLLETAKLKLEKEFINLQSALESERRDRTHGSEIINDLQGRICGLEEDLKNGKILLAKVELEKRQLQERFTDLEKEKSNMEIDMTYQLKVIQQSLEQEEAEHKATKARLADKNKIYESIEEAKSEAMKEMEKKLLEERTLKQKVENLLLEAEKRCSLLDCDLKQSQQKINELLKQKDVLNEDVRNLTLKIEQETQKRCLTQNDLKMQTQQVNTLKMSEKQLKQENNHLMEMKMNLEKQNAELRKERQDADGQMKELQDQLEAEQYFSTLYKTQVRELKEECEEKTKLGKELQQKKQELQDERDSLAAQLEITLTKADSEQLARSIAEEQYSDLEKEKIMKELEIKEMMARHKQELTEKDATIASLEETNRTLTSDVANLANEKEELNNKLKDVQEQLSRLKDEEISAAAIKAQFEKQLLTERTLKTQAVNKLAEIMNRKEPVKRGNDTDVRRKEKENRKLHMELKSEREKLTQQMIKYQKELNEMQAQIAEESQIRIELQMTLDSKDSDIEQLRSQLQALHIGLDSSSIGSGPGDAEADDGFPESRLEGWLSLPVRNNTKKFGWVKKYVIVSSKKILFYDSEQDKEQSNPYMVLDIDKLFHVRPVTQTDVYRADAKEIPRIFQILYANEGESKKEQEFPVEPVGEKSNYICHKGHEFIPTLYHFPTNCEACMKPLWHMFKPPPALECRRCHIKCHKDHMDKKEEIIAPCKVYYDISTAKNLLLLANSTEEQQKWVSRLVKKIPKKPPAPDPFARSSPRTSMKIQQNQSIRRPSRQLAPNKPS

[4] = target: Rho-associated protein kinase 1 (Homo sapiens, UniProt Q13464); test: Inhibition of ROCK1 (unknown origin) by HTRF assay
Chain of Rho-associated protein kinase 1 (Q13464 whole entry): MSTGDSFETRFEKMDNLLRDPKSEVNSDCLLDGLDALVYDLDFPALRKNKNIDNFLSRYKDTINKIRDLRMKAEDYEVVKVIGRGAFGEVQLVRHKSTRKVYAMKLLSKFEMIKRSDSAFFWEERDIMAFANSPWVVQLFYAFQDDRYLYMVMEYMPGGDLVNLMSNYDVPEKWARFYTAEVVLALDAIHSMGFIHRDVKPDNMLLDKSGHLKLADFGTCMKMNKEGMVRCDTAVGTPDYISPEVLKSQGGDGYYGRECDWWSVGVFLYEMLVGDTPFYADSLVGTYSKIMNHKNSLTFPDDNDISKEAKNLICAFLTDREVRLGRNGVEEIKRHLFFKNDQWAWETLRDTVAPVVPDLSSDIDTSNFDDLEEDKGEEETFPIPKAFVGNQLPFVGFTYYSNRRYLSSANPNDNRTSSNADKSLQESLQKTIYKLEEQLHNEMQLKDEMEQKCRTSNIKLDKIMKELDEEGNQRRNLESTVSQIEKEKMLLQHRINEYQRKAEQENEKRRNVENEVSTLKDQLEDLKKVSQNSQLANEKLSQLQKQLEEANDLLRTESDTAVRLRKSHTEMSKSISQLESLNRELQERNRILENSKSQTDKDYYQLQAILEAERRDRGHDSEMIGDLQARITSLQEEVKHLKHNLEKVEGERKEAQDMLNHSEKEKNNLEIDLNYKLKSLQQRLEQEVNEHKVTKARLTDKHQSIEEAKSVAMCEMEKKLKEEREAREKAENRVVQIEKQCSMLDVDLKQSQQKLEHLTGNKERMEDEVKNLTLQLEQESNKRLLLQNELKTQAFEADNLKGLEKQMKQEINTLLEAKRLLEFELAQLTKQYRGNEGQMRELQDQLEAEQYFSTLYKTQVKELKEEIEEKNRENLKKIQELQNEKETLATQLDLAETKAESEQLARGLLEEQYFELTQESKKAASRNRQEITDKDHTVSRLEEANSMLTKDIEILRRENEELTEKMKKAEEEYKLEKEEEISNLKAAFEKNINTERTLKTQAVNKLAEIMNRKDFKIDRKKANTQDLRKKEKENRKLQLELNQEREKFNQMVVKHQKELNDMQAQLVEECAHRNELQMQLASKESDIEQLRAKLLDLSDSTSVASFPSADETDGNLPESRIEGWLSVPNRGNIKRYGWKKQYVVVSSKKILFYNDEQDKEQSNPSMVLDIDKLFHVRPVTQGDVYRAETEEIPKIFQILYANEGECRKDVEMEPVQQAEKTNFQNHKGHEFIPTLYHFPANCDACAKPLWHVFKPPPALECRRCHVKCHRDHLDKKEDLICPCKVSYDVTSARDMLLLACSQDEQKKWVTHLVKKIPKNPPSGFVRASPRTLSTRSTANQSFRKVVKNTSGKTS

Mus musculus [5] = test: Anti-inflammatory activity in Balb/c mouse model of IMQ-induced skin inflammation assessed as decrease in IL-23 mRNA level in dorsal skin at 20 to 40 mg/kg, po administered daily for 7 days by RT-qPCR analysis; type: functional, organism-based; conditions: dose 20-40 mg/kg, time 7.0 day
Mus musculus [6] = test: Anti-inflammatory activity in Balb/c mouse model of IMQ-induced skin inflammation assessed as reduction in skin roughness at 20 to 80 mg/kg, po administered daily for 7 days; type: functional, organism-based; conditions: dose 20-80 mg/kg, time 7.0 day
Mus musculus [7] = test: Anti-inflammatory activity in Balb/c mouse model of IMQ-induced skin inflammation assessed as decrease in Ki67+ cells in dermis of dorsal skin at 80 mg/kg, po administered daily for 7 days by IHC analysis; type: functional, organism-based; conditions: time 7.0 day
Mus musculus [8] = test: Anti-inflammatory activity in Balb/c mouse model of IMQ-induced skin inflammation assessed as decrease in IL-17A+ T cells in dorsal skin administered orally daily for 7 days by high power field microscopy; type: functional, organism-based; conditions: T-cell, dose 20-80 mg/kg, route po, time 7.0 day
[9] = Solubility in aqueous buffer at pH 7.4; type: physicochemical
Mus musculus [10] = test: Anti-inflammatory activity in Balb/c mouse model of IMQ-induced skin inflammation assessed as decrease in Ki67+ cells in epidermis of dorsal skin at 80 mg/kg, po administered daily for 7 days by IHC analysis; type: functional, organism-based; conditions: time 7.0 day
[11] = Toxicity in Balb/c mouse model of IMQ-induced skin inflammation assessed as reduction in spleen index administered orally daily for 7 days; type: tissue-based; conditions: in vivo, po, 168 h, dose 40-80 mg/kg, time 7 day
[12] = Oral bioavailability in Balb/c mouse at 40 mg/kg measured for 0.08 to 24 hrs by LC-MS/MS analysis; type: ADME, organism-based; conditions: in vivo, time 0.08-24 hrs
Mus musculus [13] = test: Anti-inflammatory activity in Balb/c mouse model of IMQ-induced skin inflammation assessed as decrease in CD3+ T cells in dorsal skin at 20 to 80 mg/kg, po administered daily for 7 days by high power field microscopy; type: functional, organism-based; conditions: T-cell, dose 20-80 mg/kg, time 7.0 day

- Cmax [2]: 226 ng/mL
- IC50 [3]: 3.7 nM
- IC50 [4]: 71.2 nM
- solubility [9]: 193 µg/mL (≈ 433 µM)
- bioavailability [12]: 7.14%
Compound: Cc1cc(=O)n(-c2cccc(CN[C@H]3CCC[C@H](Nc4ccc5[nH]ncc5c4)C3)c2)cc1F
- Activity (Mus musculus [1]): Active
- Activity (HaCaT): Active
- Activity (Mus musculus [5]): Active
- Activity (Mus musculus [6]): Active
- Activity (Mus musculus [7]): Active
- Activity (Mus musculus [8]): Dose-Dependent Effect
- Activity (Mus musculus [10]): Active
- Activity [11]: Dose-Dependent Effect
- Activity (Mus musculus [13]): Active
